Results published in ChEMBL document CHEMBL1201862, “PubChem BioAssay data set” (2004).
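Interpolation was linear, between the two tested concentrations surrounding the appropriate level; five concentrations were tested over 48 hours in 96-well plates. The concentration for 50% growth inhibition is given as GI50.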 Calls of active or inactive are those of the source. Cut-off read from the data, not from the text of the source: active = GI50 up to about 1.1 µM and inactive = higher. Where a SMILES comes first, the peptide text is derived from it. The star is where a group is joined. Boc = CC(C)(C)OC(=O)*

What was measured:
Assay in all cases: NCI tumour cell line growth inhibition, 48 h
[1] = tested on: PC-3
[2] = tested on: NCI-H23
[3] = tested on: NCI-H226
[4] = tested on: RPMI-8226
[5] = tested on: HCT-15
[6] = tested on: MDA-MB-435
[7] = tested on: SK-MEL-28
[8] = tested on: HT-29
[9] = tested on: M14
[10] = tested on: BT-549
[11] = tested on: NCI/ADR-RES
[12] = tested on: RXF 393
[13] = tested on: Malme-3M
[14] = tested on: OVCAR-4
[15] = tested on: Hs-578T
[16] = tested on: NCI-H460
[17] = tested on: MDA-N
[18] = tested on: EKVX
[19] = tested on: MCF7
[20] = tested on: NCI-H522

Row | Structure (SMILES) | GI50 [1] | GI50 [2] | GI50 [3] | GI50 [4] | GI50 [5] | GI50 [6] | GI50 [7] | GI50 [8] | GI50 [9] | GI50 [10] | GI50 [11] | GI50 [12] | GI50 [13] | GI50 [14] | GI50 [15] | GI50 [16] | GI50 [17] | GI50 [18] | GI50 [19] | GI50 [20]
1 | O=c1[nH]c(=O)n([C@@H]2O[C@H](CO)[C@@H](O)[C@H]2O)cc1F [5-FLUOROURIDINE] | 0.164 µM (active) | 0.229 µM (active) | 0.154 µM (active) | 0.126 µM (active) | 0.0367 µM | 0.0333 µM (active) | 0.805 µM (active) | 0.0407 µM (active) | 0.222 µM (active) | 0.459 µM (active) | 0.0792 µM (active) | 0.221 µM (active) | 0.0678 µM (active) | 0.521 µM (active) | 2.01 µM (inactive) | 0.0159 µM (active) | 0.025 µM (active) | 37.2 µM (inactive) | – | –
2 | Cc1cc(C)n(C(=O)CSc2nnc(SCC(=O)n3nc(C)cc3C)s2)n1 | > 100 µM (inactive) | > 100 µM (inactive) | > 100 µM (inactive) | > 100 µM (inactive) | > 100 µM | > 100 µM (inactive) | > 100 µM (inactive) | – | > 100 µM (inactive) | > 100 µM (inactive) | > 100 µM (inactive) | > 100 µM (inactive) | – | > 100 µM (inactive) | 33.8 µM (inactive) | > 100 µM (inactive) | > 100 µM (inactive) | 25.5 µM (inactive) | > 100 µM (inactive) | –
3 | C=CCOc1ccccc1C1(O)c2ccccc2C2=NCCCN21 (stereo not drawn) | 20.7 µM (inactive) | 30.8 µM (inactive) | 31.8 µM (inactive) | 35.6 µM (inactive) | > 100 µM | 30.9 µM (inactive) | 20.4 µM (inactive) | 19.5 µM (inactive) | 18.7 µM (inactive) | 81.1 µM (inactive) | > 100 µM (inactive) | – | – | 70.3 µM (inactive) | 77.8 µM (inactive) | 78.9 µM (inactive) | 39.9 µM (inactive) | 56.1 µM (inactive) | 31.5 µM (inactive) | –
4 | CNc1cccc(-c2cc(O)c3cc4c(cc3n2)OCO4)c1 | 0.254 µM (active) | 0.436 µM (active) | 0.404 µM (active) | 0.358 µM (active) | 0.272 µM | 0.0378 µM (active) | 0.859 µM (active) | 0.3 µM (active) | 0.224 µM (active) | 0.394 µM (active) | 0.199 µM (active) | 0.213 µM (active) | 0.168 µM (active) | > 20.7 µM (inactive) | 0.269 µM (active) | 0.436 µM (active) | 0.0296 µM (active) | – | 0.293 µM (active) | 0.127 µM (active)
5 | C=CCC1(c2ccc(OC)cc2)C=CC(=O)CC1 (stereo not drawn) | 77.3 µM (inactive) | > 100 µM (inactive) | > 100 µM (inactive) | – | 72.3 µM | 66.4 µM (inactive) | > 100 µM (inactive) | > 100 µM (inactive) | > 100 µM (inactive) | 70.6 µM (inactive) | 33.2 µM (inactive) | 94 µM (inactive) | – | > 100 µM (inactive) | 28.5 µM (inactive) | > 100 µM (inactive) | 65.8 µM (inactive) | > 100 µM (inactive) | > 100 µM (inactive) | 77.1 µM (inactive)
6 | Cc1ccc(C(=O)O)cc1S(=O)(=O)Nn1cnc2ccc(S(=O)(=O)Nc3ccccc3C(=O)O)cc2c1=O | 16.6 µM (inactive) | > 100 µM (inactive) | 83.8 µM (inactive) | 54.5 µM (inactive) | > 100 µM | > 100 µM (inactive) | > 100 µM (inactive) | > 100 µM (inactive) | 18.3 µM (inactive) | > 100 µM (inactive) | > 100 µM (inactive) | – | > 100 µM (inactive) | > 100 µM (inactive) | > 100 µM (inactive) | > 100 µM (inactive) | 47.3 µM (inactive) | > 100 µM (inactive) | > 100 µM (inactive) | > 100 µM (inactive)
7 | CCC1C(c2ccccc2O)c2cc3c(cc2OC1N1CCOCC1)OCO3 (stereo not drawn) | 12.5 µM (inactive) | 18.2 µM (inactive) | 15.7 µM (inactive) | 13.9 µM (inactive) | 9.4 µM | 15.6 µM (inactive) | 17.6 µM (inactive) | 13.6 µM (inactive) | 15.1 µM (inactive) | 15.6 µM (inactive) | – | 13.3 µM (inactive) | 13 µM (inactive) | – | 15.9 µM (inactive) | 14.3 µM (inactive) | 12.8 µM (inactive) | 12.8 µM (inactive) | 14.4 µM (inactive) | 12.9 µM (inactive)
8 | N#CC(C#N)=C1C(=Cc2ccc(OCCCCCCCCCCSSCCCCCCCCCCOc3ccc(C=C4C(=C(C#N)C#N)c5ccccc5C4=C(C#N)C#N)cc3)cc2)C(=C(C#N)C#N)c2ccccc21 | 20.8 µM (inactive) | 17.3 µM (inactive) | 24 µM (inactive) | 39.2 µM (inactive) | 16.7 µM | 38.7 µM (inactive) | 21.6 µM (inactive) | 19.2 µM (inactive) | 20.3 µM (inactive) | 17 µM (inactive) | 19.3 µM (inactive) | 22.6 µM (inactive) | – | 21.8 µM (inactive) | 20.4 µM (inactive) | 22.1 µM (inactive) | 34.8 µM (inactive) | 20.9 µM (inactive) | 20.8 µM (inactive) | 17.8 µM (inactive)
9 | CC1(C)Cc2c(c3ccccc3c3nc4c(nc23)c2c(c3ccccc34)OC(C)(C)C2)O1 | > 100 µM (inactive) | > 100 µM (inactive) | – | > 100 µM (inactive) | > 100 µM | > 100 µM (inactive) | > 100 µM (inactive) | > 100 µM (inactive) | > 100 µM (inactive) | > 100 µM (inactive) | > 100 µM (inactive) | > 100 µM (inactive) | > 100 µM (inactive) | > 100 µM (inactive) | 39.4 µM (inactive) | > 100 µM (inactive) | > 100 µM (inactive) | > 100 µM (inactive) | > 100 µM (inactive) | > 100 µM (inactive)
10 | CCOC(=O)c1c2ccccc2n2c(=O)n(-c3ccccc3)nnc12 | > 90.6 µM (inactive) | > 87.1 µM (inactive) | > 40.2 µM (inactive) | 15.3 µM (inactive) | > 76.9 µM | 18.7 µM (inactive) | > 100 µM (inactive) | – | 59 µM (inactive) | > 100 µM (inactive) | > 58.3 µM (inactive) | > 55.6 µM (inactive) | > 100 µM (inactive) | > 71.8 µM (inactive) | > 100 µM (inactive) | 30.7 µM (inactive) | > 42.4 µM (inactive) | > 100 µM (inactive) | 0.923 µM (active) | –
11 | CCOc1ccc(N/C(=C(/C(Cl)=C(/Cl)NCCO)[N+](=O)[O-])n2nnc3ccccc32)cc1 | 25.7 µM (inactive) | 17.5 µM (inactive) | > 100 µM (inactive) | 30.7 µM (inactive) | 20.5 µM | 16.4 µM (inactive) | 18.7 µM (inactive) | 29.9 µM (inactive) | 30.4 µM (inactive) | 18.5 µM (inactive) | 25.2 µM (inactive) | 16.2 µM (inactive) | 18.4 µM (inactive) | 16.7 µM (inactive) | 15.2 µM (inactive) | 48 µM (inactive) | 28.9 µM (inactive) | 25.2 µM (inactive) | 19 µM (inactive) | –
12 | Cc1cnc2nc(-c3sccc3C)cc(O)c2c1 | 3.78 µM (inactive) | 3.7 µM (inactive) | 4.14 µM (inactive) | – | 1.57 µM | 0.342 µM (active) | 23 µM (inactive) | 2.4 µM (inactive) | 2.25 µM (inactive) | 9.42 µM (inactive) | 2.31 µM (inactive) | 3.42 µM (inactive) | 1.37 µM (inactive) | > 100 µM (inactive) | 2.3 µM (inactive) | 2.99 µM (inactive) | 0.361 µM (active) | 7.06 µM (inactive) | 2.84 µM (inactive) | 1.12 µM (active)
13 | CC(C)=CCc1c(OC(=O)c2c(C)cc(O)cc2O)cc(CO)c(CO)c1O | 18 µM (inactive) | 16.8 µM (inactive) | 34 µM (inactive) | – | 17.7 µM | 17.7 µM (inactive) | 18.5 µM (inactive) | 21.2 µM (inactive) | 20.8 µM (inactive) | 18.7 µM (inactive) | 30.1 µM (inactive) | – | 17.5 µM (inactive) | 16 µM (inactive) | 20.1 µM (inactive) | 17.6 µM (inactive) | 19.1 µM (inactive) | 32.4 µM (inactive) | 24 µM (inactive) | 18 µM (inactive)
14 | C(#Cc1ccccc1)SC1=C(c2ccccc2)S/C(=C(\SC#Cc2ccccc2)c2ccccc2)S1 | > 100 µM (inactive) | > 100 µM (inactive) | > 100 µM (inactive) | – | > 100 µM | > 100 µM (inactive) | > 100 µM (inactive) | > 100 µM (inactive) | > 100 µM (inactive) | > 100 µM (inactive) | > 100 µM (inactive) | – | – | > 100 µM (inactive) | > 100 µM (inactive) | > 100 µM (inactive) | > 100 µM (inactive) | > 100 µM (inactive) | > 100 µM (inactive) | > 100 µM (inactive)
15 | CC(NC(=O)C(NC(=O)OC(C)(C)C)C(C)C)C(=O)NCC(=O)O (stereo not drawn) (Boc-Val-Ala-Gly-OH; configuration not given here) | > 100 µM (inactive) | > 100 µM (inactive) | > 10 µM (inactive) | > 100 µM (inactive) | > 100 µM | > 100 µM (inactive) | > 100 µM (inactive) | > 100 µM (inactive) | > 100 µM (inactive) | > 100 µM (inactive) | > 100 µM (inactive) | > 100 µM (inactive) | > 100 µM (inactive) | – | > 100 µM (inactive) | > 100 µM (inactive) | > 100 µM (inactive) | > 100 µM (inactive) | – | > 100 µM (inactive)
